Counter-ions that a name gives are not always drawn.
Each compound was assayed against human PDE10A (UniProt Q9Y233) (assay: Measurement of PDE activity (recombinant enzyme, HTRF cAMP kit)). Conditions: Table 1, substrate 20 nM for PDE10, 60 minutes at 29 C, read-out: IC50.
Type: biochemical
Procedure, shortened: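 Recombinant human PDE10A (10–250 pM range across PDEs) with 20 nM cAMP substrate in 20 mM Tris-HCl pH 7.5, 10 mM MgCl2, 0.1% BSA, compound pre-mixed with enzyme. Ran 60 min at 29 °C. Remaining cAMP read by HTRF, converted to % of uninhibited activity, and IC50 fitted.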

Sequence of human PDE10A (Q9Y233 290-1055 limits assumed): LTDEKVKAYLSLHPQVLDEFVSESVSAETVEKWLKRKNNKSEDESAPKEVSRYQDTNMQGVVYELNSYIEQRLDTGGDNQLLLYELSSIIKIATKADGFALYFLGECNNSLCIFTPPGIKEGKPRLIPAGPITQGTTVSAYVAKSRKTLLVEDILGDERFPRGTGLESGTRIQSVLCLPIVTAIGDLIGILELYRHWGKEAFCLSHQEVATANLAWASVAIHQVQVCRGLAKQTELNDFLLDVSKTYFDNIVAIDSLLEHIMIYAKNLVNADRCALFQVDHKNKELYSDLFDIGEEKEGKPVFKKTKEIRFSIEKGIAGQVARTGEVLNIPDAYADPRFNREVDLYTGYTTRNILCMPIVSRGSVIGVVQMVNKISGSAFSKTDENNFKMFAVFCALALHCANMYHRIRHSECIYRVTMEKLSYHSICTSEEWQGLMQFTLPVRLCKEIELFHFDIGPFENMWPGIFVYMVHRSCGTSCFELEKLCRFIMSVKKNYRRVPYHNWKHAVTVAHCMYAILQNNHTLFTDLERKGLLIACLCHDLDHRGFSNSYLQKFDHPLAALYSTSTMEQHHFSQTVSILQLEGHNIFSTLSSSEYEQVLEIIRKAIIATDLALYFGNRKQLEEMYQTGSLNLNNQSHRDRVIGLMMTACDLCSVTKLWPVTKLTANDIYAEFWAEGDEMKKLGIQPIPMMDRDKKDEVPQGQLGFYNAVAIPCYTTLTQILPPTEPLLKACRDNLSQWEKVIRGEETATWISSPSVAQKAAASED

SMILES | IC50 [nM]
Cc1cc(-c2csc3cnn(CCc4ccc5ccccc5n4)c(=O)c23)ccn1 [Example 51, 3-(2-methylpyridin-4-yl)-5-[2-(quinolin-2-yl)ethyl]thieno[2,3-d]pyridazin-4(5H)-one] | < 100
O=C1Cc2ccc(-c3csc4ccn(CCc5ccc6ccccc6n5)c(=O)c34)cc2N1 [Example 207, 3-(2-Oxoindolin-6-yl)-5-[2-(quinolin-2-yl)ethyl]thieno[3,2-c]pyridin-4(5H)-one] | < 100
Cc1ccc(-c2cccc3cnn(CCc4ccc5ccccc5n4)c(=O)c23)cc1 [Example 100, 8-(4-Methylphenyl)-2-[2-(quinolin-2-yl)ethyl]phthalazin-1(2H)-one] | 200 to 500
O=c1c2cccc(-c3cncnc3)c2cnn1CCc1ccc2ccccc2n1 [Example 193, 5-(Pyrimidin-5-yl)-2-[2-(quinolin-2-yl)ethyl]phthalazin-1(2H)-one hydrochloride] | < 100
O=c1c2c(-c3cccs3)cccc2cnn1CCc1ccc2ccccc2n1 [Example 119, 2-[2-(Quinolin-2-yl)ethyl]-8-(thiophen-2-yl)phthalazin-1(2H)-one] | 200 to 500
O=c1c2cccc(N3CCOCC3)c2cnn1CCc1cn2ccccc2n1 [Example 198, 2-[2-(Imidazo[1,2-a]pyridin-2-yl)ethyl]-5-(morpholin-4-yl)phthalazin-1(2H)-one hydrochloride] | < 100
O=c1c2c(-c3cccnc3)csc2ccn1C1CC1c1ccc2ccccc2n1 (stereo not drawn) [compound 289] | < 100
COc1cnccc1-c1cccc2cnn(CCc3cn4ccccc4n3)c(=O)c12 [Example 167, 2-[2-(Imidazo[1,2-a]pyridin-2-yl)ethyl]-8-(3-methoxypyridin-4-yl)phthalazin-1(2H)-one] | 200 to 500
O=c1c2c(N3CCOCC3)cccc2ccn1C1CC1c1ccc2ccccc2n1 (single isomer, unassigned) [Example 246b, anti (−) 8-morpholino-2-(2-(quinolin-2-yl)cyclopropyl)isoquinolin-1(2H)-one] | < 100
O=c1c2c(-c3ccncc3)csc2cnn1CCc1ccc2cc(F)ccc2n1 [Example 93, 5-[2-(6-Fluoroquinolin-2-yl)ethyl]-3-(pyridin-4-yl)thieno[2,3-d]pyridazin-4(5H)-one] | < 100
O=c1c2c(NC3CCCNC3)cccc2cnn1CCc1cn2ccccc2n1 (stereo not drawn) [compound 393, dihydrochloride] | < 100
O=c1c2c(-c3ccc(F)cc3)cccc2ccn1[C@@H]1C[C@H]1c1ccc2ccccc2n1 (relative stereo) [Example 267, anti 8-(4-fluorophenyl)-2-(2-(quinolin-2-yl)cyclopropyl)isoquinolin-1(2H)-one] | < 100
O=c1c2c(-c3ccncc3)csc2cnn1CCc1cnc2ccccc2n1 [compound 311, hydrochloride] | 100 to 200
O=c1c2c(-c3cccc(O)c3)csc2cnn1CCc1ccc2ccccc2n1 [Example 31, 3-(3-hydroxyphenyl)-5-[2-(quinolin-2-yl)ethyl]thieno[2,3-d]pyridazin-4(5H)-one] | 100 to 200
O=c1c2cccc(-c3ccncc3)c2ccn1C1CC1c1ccc2ccccc2n1 (stereo not drawn) [compound 297] | < 100
O=c1c2c(-c3ccncc3)csc2cnn1C1CC1c1ccc2ccccc2n1 (stereo not drawn) [compound 295] | < 100
O=c1c2c(-c3ccc4c(c3)OCO4)csc2cnn1CCc1ccc2ccccc2n1 [Example 54, 3-(1,3-benzodioxol-5-yl)-5-[2-(quinolin-2-yl)ethyl]thieno[2,3-d]pyridazin-4(5H)-one] | 100 to 200
Cn1cc(-c2cccc3ccn([C@@H]4C[C@H]4c4ccc5ccccc5n4)c(=O)c23)cn1 (relative stereo) [Example 241, anti 8-(1-methyl-1H-pyrazol-4-yl)-2-(2-(quinolin-2-yl)cyclopropyl)isoquinolin-1(2H)-one] | < 100

SMILES | IC50 [nM]
O=c1c2c(NC3COC3)cccc2ccn1C1CC1c1ccc2ccccc2n1 (single isomer, unassigned; (+)) [Example 235a, (+) anti 8-(oxetan-3-ylamino)-2-(2-(quinolin-2-yl)cyclopropyl)isoquinolin-1(2H)-one] | < 100
N#Cc1ccc(-c2csc3cnn(CCc4ccc5ccccc5n4)c(=O)c23)cc1 [Example 10, 4-{4-oxo-5-[2-(quinolin-2-yl)ethyl]-4,5-dihydrothieno[2,3-d]pyridazin-3-yl}benzonitrile] | < 100
O=c1c2cccc(N3CCOCC3)c2ccn1C1CC1c1ccc2ccccc2n1 (stereo not drawn) [compound 299] | < 100
O=c1c2c(-c3cncnc3)coc2ccn1CCc1ccc2ccccc2n1 [Example 231, 3-(Pyrimidin-5-yl)-5-(2-(quinolin-2-yl)ethyl)furo[3,2-c]pyridin-4(5H)-one] | < 100
O=c1c2c(-c3ccc4c(c3)OCCO4)csc2cnn1CCc1ccc2ccccc2n1 [Example 50, 3-(2,3-dihydro-1,4-benzodioxin-6-yl)-5-[2-(quinolin-2-yl)ethyl]thieno[2,3-d]pyridazin-4(5H)-one] | 200 to 500
O=c1c2c(-c3ccnnc3)csc2ccn1C1CC1c1ccc2ccccc2n1 (stereo not drawn) [compound 285] | < 100
O=c1c2c(-c3ccncc3)csc2ccn1C1CC1c1ccc2ccccc2n1 (single isomer, unassigned) [293a] | < 100
O=c1c2c(-c3ccc4cc[nH]c4c3)csc2cnn1CCc1ccc2ccccc2n1 [Example 36, 3-(1H-indol-6-yl)-5-[2-(quinolin-2-yl)ethyl]thieno[2,3-d]pyridazin-4(5H)-one] | < 100
CC(=O)N1CCCC(Nc2cccc3cnn(CCc4cn5ccccc5n4)c(=O)c23)C1 (stereo not drawn) [compound 389, hydrochloride] | 100 to 200
CCc1ccc(CCn2ccc3scc(-c4ccncc4)c3c2=O)nc1 [Example 209, 5-[2-(5-Ethylpyridin-2-yl)ethyl]-3-(pyridin-4-yl)thieno[3,2-c]pyridin-4(5H)-one hydrochloride] | 200 to 500
O=c1c2c(N3CCOCC3)csc2ccn1C1CC1c1ccc2ccccc2n1 (stereo not drawn) [compound 287] | < 100
O=c1c2c(N3CCS(=O)(=O)CC3)cccc2cnn1CCc1ccc2ccccc2n1 [Example 173, 8-(1,1-Dioxidothiomorpholin-4-yl)-2-[2-(quinolin-2-yl)ethyl]-phthalazin-1(2H)-one] | < 100
O=c1c2c(-c3ccncc3)ccnc2cnn1CCc1ccc2ccccc2n1 [compound 404, 4-(pyridin-4-yl)-6-[2-(quinolin-2-yl)ethyl]pyrido[2,3-d]pyridazin-5(6H)-one] | < 100
O=c1c2c(-c3ccncc3)csc2cnn1C1CC1c1ccc2sccc2n1 (stereo not drawn) [compound 291] | < 100
O=c1c2c(C#Cc3ccncc3)csc2cnn1CCc1ccc2ccccc2n1 [compound 320, hydrochloride] | 200 to 500
O=c1c2c(NC3CCOC3)cccc2cnn1CCc1cn2ccccc2n1 (stereo not drawn) [compound 391, 2-[2-(imidazo[1,2-a]pyridin-2-yl)ethyl]-8-(tetrahydrofuran-3-ylamino)phthalazin-1(2H)-one] | < 100
O=c1c2ccsc2c(-c2ccncc2)nn1CCc1ccc2ccccc2n1 [Example 2, 7-(Pyridin-4-yl)-5-[2-(quinolin-2-yl)ethyl]thieno[2,3-d]pyridazin-4(5H)-one] | < 100
COc1ncc(-c2cccc3cnn(CCc4cn5ccccc5n4)c(=O)c23)cn1 [compound 347, 2-[2-(imidazo[1,2-a]pyridin-2-yl)ethyl]-8-(2-methoxypyrimidin-5-yl)phthalazin-1(2H)-one] | 100 to 200

From patent US20130116241A1, “NOVEL INHIBITOR COMPOUNDS OF PHOSPHODIESTERASE TYPE 10A” (AbbVie Inc., priority 2011, published 2013)
